Assay results: US20110015067A1, “Herbicidal Compositions Comprising Pyroxasulfone” (BASF SE, priority 2008, published 2011)

Experiments:
Assay type in all cases: in vivo
[1] = system: ALOMY (Alopecurus myosuroides); assay: pre-emergence greenhouse test; details: for observed activity in % destruction: pre-emergence
Excerpt: (§1) For the pre-emergence treatment, directly after sowing the active compounds, which had been suspended or emulsified in water, were applied by means of finely distributed nozzles. The containers were irrigated gently to promote germination and growth and subsequently covered with transparent plastic hoods until plant had rooted. This cover caused uniform germination of the tests plants, unless this was adversely affected by active compounds.
(§2) The respective herbicides A and/or safener were formulated as 10% by weight strength suspension concentrate and introduced to the spray liquor with the amount of solvent system used for applying the active compound. Herbicide B and/or safener were used as commercially available formulations and introduced to the spray liquor with the amount of solvent system used for applying the active compound. In the examples, the solvent used was water.
(§3) The test period extended over 20 days. During this time, the plants were tended, and their response to the treatments with active compound was evaluated.
(§4) In the following experiments, the herbicidal activity for the individual herbicide compounds (solo application) and of the mixture was assessed 8 days after treatment (8 DAT) and/or 20 days after treatment (20 DAT).
(§5) The evaluation for the damage caused by the chemical compositions was carried out using a scale from 0 to 100%, compared to the untreated control plants. Here, 0 means no damage and 100 means complete destruction of the plants.

[2] = system: AMARE (Amaranthus retroflexus); assay: pre-emergence greenhouse test; details: for observed activity in % destruction: pre-emergence
Excerpt: as §1, §2, §3, §4, §5

[3] = system: AMBEL (Ambrosia artemisifolia); assay: pre-emergence greenhouse test
Excerpt: as §1, §2, §3, §4, §5

[4] = system: BRAPL (Brachiaria plantaginea); assay: pre-emergence greenhouse test; details: pre-emergence, 15 g ai/ha
Excerpt: as §1, §2, §3, §4, §5

[5] = system: CCHEC (Cenchrus echinatus); assay: pre-emergence greenhouse test
Excerpt: as §1, §2, §3, §4, §5

[6] = system: COMBE (Commelina benghalensis); assay: pre-emergence greenhouse test; details: for observed activity in % destruction: pre-emergence
Excerpt: as §1, §2, §3, §4, §5

[7] = system: ECHCG (Echinochloa crus-galli); assay: pre-emergence greenhouse test; details: for observed activity in % destruction: pre-emergence
Excerpt: as §1, §2, §3, §4, §5

ERBVI = assay: pre-emergence greenhouse test
Excerpt: as §1, §2, §3, §4, §5

[8] = system: PANDI (Panicum dichotomiflorum); assay: pre-emergence greenhouse test; details: pre-emergence
Excerpt: as §1, §2, §3, §4, §5

[9] = system: PANMI (Panicum milliaceum); assay: pre-emergence greenhouse test
Excerpt: as §1, §2, §3, §4, §5

PHBPU (Ipomoea purpurea) = assay: pre-emergence greenhouse test; details: PHBPU pre-emergence 15 g ai/ha
Excerpt: as §1, §2, §3, §4, §5

SETVI (Setaria viridis) = assay: pre-emergence greenhouse test; details: for observed activity in % destruction: pre-emergence
Excerpt: as §1, §2, §3, §4, §5

SOLNI (Solanum nigrum) = assay: pre-emergence greenhouse test
Excerpt: as §1, §2, §3, §4, §5

[10] = system: AMBEL (Ambrosia artemisifolia); assay: post-emergence greenhouse test; details: 3.75 g ai/ha
Excerpt: (§6) For the post-emergence treatment, the test plants were first grown to a height of 3 to 20 cm, depending on the plant habit, and only then treated. Here, the herbicidal compositions were suspended or emulsified in water as distribution medium and sprayed using finely distributing nozzles.
as §2, §3, §4, §5

[11] = system: CHEAL (Chenopodium album); assay: post-emergence greenhouse test; details: 15 g ai/ha
Excerpt: as §6, §2, §3, §4, §5

[12] = system: LOLMU (Lolium multiflorum); assay: post-emergence greenhouse test; details: 3.75 g ai/ha
Excerpt: as §6, §2, §3, §4, §5

[13] = system: MERAN (Mercurialis annua); assay: post-emergence greenhouse test; details: 7.5 g ai/ha
Excerpt: as §6, §2, §3, §4, §5

CC(C)C1(C)N=C(c2nc3ccccc3cc2C(=O)O)NC1=O (centres unmarked) [imazaquin]
observed % destruction 20 DAT ([1]; ALOMY pre-emergence 15 g ai/ha): 75%
observed activity in % destruction ([1]; 3.75 g ai/ha, 8 DAT): 0%
observed activity in % destruction ([1]; 3.75 g ai/ha, 20 DAT): 30%
observed activity in % destruction ([1]; 15 g ai/ha, 8 DAT): 30%
observed activity in % destruction ([1]; 15 g ai/ha, 20 DAT): 75%
observed % destruction 20 DAT ([2]; AMARE pre-emergence 3.75 g ai/ha): 50%
observed % destruction 20 DAT ([2]; AMARE pre-emergence 15 g ai/ha): 70%
observed activity in % destruction ([2]; 3.75 g ai/ha, 8 DAT): 40%
observed activity in % destruction ([2]; 3.75 g ai/ha, 20 DAT): 50%
observed activity in % destruction ([2]; 7.5 g ai/ha, 8 DAT): 50%
observed activity in % destruction ([2]; 7.5 g ai/ha, 20 DAT): 60%
observed % destruction 20 DAT ([3]; AMBEL pre-emergence 3.75 g ai/ha): 50%
observed % destruction 20 DAT ([3]; AMBEL pre-emergence 7.5 g ai/ha): 60%
observed % destruction 20 DAT ([3]; AMBEL pre-emergence 15 g ai/ha): 80%
observed activity in % destruction ([4]; 8 DAT): 20%
observed activity in % destruction ([4]; 20 DAT): 60%
observed % destruction 20 DAT ([5]; CCHEC pre-emergence 3.75 g ai/ha): 20%
observed % destruction 20 DAT ([5]; CCHEC pre-emergence 7.5 g ai/ha): 20%
observed % destruction 20 DAT ([5]; CCHEC pre-emergence 15 g ai/ha): 35%
observed % destruction 20 DAT ([6]; COMBE pre-emergence 3.75 g ai/ha): 35%
observed % destruction 20 DAT ([6]; COMBE pre-emergence 7.5 g ai/ha): 45%
observed activity in % destruction ([6]; 3.75 g ai/ha, 8 DAT): 20%
observed activity in % destruction ([6]; 3.75 g ai/ha, 20 DAT): 35%
observed activity in % destruction ([6]; 7.5 g ai/ha, 8 DAT): 40%
observed activity in % destruction ([6]; 7.5 g ai/ha, 20 DAT): 45%
observed activity in % destruction ([6]; 15 g ai/ha, 8 DAT): 50%
observed activity in % destruction ([6]; 15 g ai/ha, 20 DAT): 70%
observed % destruction 20 DAT ([7]; ECHCG pre-emergence 3.75 g ai/ha): 0%
observed % destruction 20 DAT ([7]; ECHCG pre-emergence 7.5 g ai/ha): 0%
observed % destruction 20 DAT ([7]; ECHCG pre-emergence 15 g ai/ha): 20%
observed activity in % destruction ([7]; 7.5 g ai/ha, 8 DAT): 0%
observed activity in % destruction ([7]; 7.5 g ai/ha, 20 DAT): 0%
observed activity in % destruction ([7]; 15 g ai/ha, 8 DAT): 20%
observed activity in % destruction ([7]; 15 g ai/ha, 20 DAT): 20%
observed % destruction 20 DAT (ERBVI; ERBVI pre-emergence 3.75 g ai/ha): 0%
observed % destruction 20 DAT (ERBVI; ERBVI pre-emergence 7.5 g ai/ha): 20%
observed activity in % destruction ([8]; 3.75 g ai/ha, 8 DAT): 0%
observed activity in % destruction ([8]; 3.75 g ai/ha, 20 DAT): 45%
observed activity in % destruction ([8]; 7.5 g ai/ha, 8 DAT): 20%
observed activity in % destruction ([8]; 7.5 g ai/ha, 20 DAT): 75%
observed activity in % destruction ([8]; 15 g ai/ha, 8 DAT): 40%
observed activity in % destruction ([8]; 15 g ai/ha, 20 DAT): 80%
observed % destruction 20 DAT ([9]; PANMI pre-emergence 3.75 g ai/ha): 30%
observed % destruction 20 DAT ([9]; PANMI pre-emergence 7.5 g ai/ha): 40%
observed % destruction 20 DAT ([9]; PANMI pre-emergence 15 g ai/ha): 45%
observed % destruction 20 DAT (PHBPU (Ipomoea purpurea)): 40%
observed % destruction 20 DAT (SETVI (Setaria viridis); SETVI pre-emergence 15 g ai/ha): 75%
observed activity in % destruction (SETVI (Setaria viridis); 3.75 g ai/ha, 8 DAT): 30%
observed activity in % destruction (SETVI (Setaria viridis); 3.75 g ai/ha, 20 DAT): 30%
observed activity in % destruction (SETVI (Setaria viridis); 15 g ai/ha, 8 DAT): 65%
observed activity in % destruction (SETVI (Setaria viridis); 15 g ai/ha, 20 DAT): 75%
observed % destruction 20 DAT (SOLNI (Solanum nigrum); SOLNI pre-emergence 3.75 g ai/ha): 40%
observed % destruction 20 DAT (SOLNI (Solanum nigrum); SOLNI pre-emergence 7.5 g ai/ha): 70%
observed % destruction 20 DAT (SOLNI (Solanum nigrum); SOLNI pre-emergence 15 g ai/ha): 85%
observed activity in % destruction ([10]; 8 DAT): 20%
observed activity in % destruction ([10]; 20 DAT): 20%
observed activity in % destruction ([11]; 8 DAT): 20%
observed activity in % destruction ([11]; 20 DAT): 10%
observed activity in % destruction ([12]; 8 DAT): 0%
observed activity in % destruction ([12]; 20 DAT): 0%
observed activity in % destruction ([13]; 8 DAT): 20%
observed activity in % destruction ([13]; 20 DAT): 0%
